Where two headings read alike, the source gives them in different places.
Experiments:
[1] = target: T1, Gαo:RGS17 protein:protein interaction (Homo sapiens, UniProt Q9UGC6); test: AlphaScreen Gαo:RGS17 protein:protein interaction assay (HTS and dose-response); type: binding; conditions: for inhibition of the interaction of RGS17 with Gαo: AlphaScreen dose-response, n=3 in triplicate; for inhibition at 100 µM: read-out: inhibition of the AlphaScreen assay
T1 construct: This is the same RGS17 construct used in the high throughput screening campaign that is fully active despite the N-terminal truncation; made in house; host or cells: BL21 (DE3) E. coli for Gαo
T1 sequence (Q9UGC6 84-200 limits assumed): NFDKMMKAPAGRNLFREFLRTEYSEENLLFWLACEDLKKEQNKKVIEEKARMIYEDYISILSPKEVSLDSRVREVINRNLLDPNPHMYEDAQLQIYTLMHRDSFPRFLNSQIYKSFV
Protocol: The primary biochemical screen was designed to identify compounds that function as inhibitors of the Gαo:RGS17 ppi. This was accomplished by miniaturizing our previously published HTS paradigm in a 1536-well format (17). […] We interrogated the 2320 compound containing MicroSource […] Diversity library (Discovery Systems, Inc. Gaylordsville, Conn.) (FIG. 3).
In total, 2,320 compounds from the MicroSource […] chemical library were screened at a concentration of 40 μM. Two 1536-well plates containing 1,280 compounds and 128 wells of DMSO controls were used. RGS17-anti-GST and Gαo-biotin-streptavidin beads were prepared as previously described. In brief, 100 μg (20 μL) of beads were coupled to 20 ng (10 nM) of each binding partner (Gαo:RGS17) and incubated for 30 min on ice. Then, 4.5 μL of RGS17-anti-GST beads were added using a FlexDrop IV (PerkinElmer, Waltham, Mass.) and incubated for 10 min with compound while the Gαo-biotin-streptavidin beads were incubated with AMF. After incubation, 4.5 μL of the Gαo-biotin-streptavidin bead/protein mixture was added to compound containing wells and incubated on ice for 1.25 hours and read at room temperature using the EnVision plate reader with monochromators.
Experiments were carried out similarly to the high-throughput AlphaScreen assay except this was completed using Corning 384-well white flat bottom plates and the final total volume was 60 μL, with 20 µL of Gαo-biotin-streptavidin and RGS17-anti-GST beads at a final concentration of 10 nM. Then, 20 μL of compounds in a half log dilution series to yield a final range from 1 nM to 100 μM was added to RGS17-anti-GST beads and incubated for 10 min in the dark on ice. Next, 20 μL of Gαo-biotin-streptavidin beads were then added in the presence of AMF and GDP. Negative controls were determined in the absence of AMF and compound. Maximum binding was determined in the absence of compounds but in the presence of AMF and GDP.

[2] = target: T2, RGS17-accelerated Gαo GTPase activity (Homo sapiens, UniProt Q9UGC6); test: Malachite green steady-state GTPase assay (RGS17 GAP activity); type: biochemical
T2 construct: This is the same RGS17 construct used in the high throughput screening campaign that is fully active despite the N-terminal truncation; made in house
T2 sequence (Q9UGC6 72-206 limits assumed): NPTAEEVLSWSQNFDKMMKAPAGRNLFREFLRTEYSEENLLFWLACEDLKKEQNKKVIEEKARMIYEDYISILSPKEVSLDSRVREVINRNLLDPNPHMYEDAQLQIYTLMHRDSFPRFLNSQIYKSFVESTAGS
Protocol: Next, the ability of the compounds to inhibit the “GAP” activity of RGS17 was examined. The compounds were tested using a previously described malachite green assay (18), which allows for the detection of free phosphate liberated during the enzymatic cleavage of GTP to GDP by G alpha subunits.
First, stock solutions of each of the 3 components of the developing solution were prepared according to Monroy et al (18). In brief, Compounds were seeded using a half-log dilution with the highest final concentration of compound at 100 μM down to 1 nM. […] A 4×GTP at 1.2 mM diluted in MGB, was used, with a final concentration of 300 μM. To terminate the reaction, 10 μL of a Developing Solution (DS) was 50:12.5:1 (malachite:molybdate:Tween-20) was added to each well using a Microlab Star liquid handling robot (Hamilton Robotics; Reno, Nev.), this achieved a final ratio 4:1 (sample:developing solution) absorbance was read at 642 nm.

[3] = system: RGS17ΔN:Gαo interaction in HEK293T cells; test: RGS localization assay, GFP-RGS17ΔN co-transfected with hGαo in HEK293T cells; type: cell-based, human
Protocol: HEK293T cells co-transfected with GFP-RGS17FL and human Gαo were treated with UI-5, UI-1590 and […] to determine if the compounds could disrupt the RGS17:Gαo interaction that could drive RGS17 to the membrane. […] To test this hypothesis, we constructed a GFP-RGS17 fusion protein with an N-terminal truncation, removing the cysteine-rich motif. […] As a negative control, we tested a known RGS4 inhibitor (CCG-50014) in this assay against RGS17ΔN (21). […] Finally, to ensure the localization was not due to the GFP tag, pAcGFP vector was co-transfected into HEK293T cells with hGαo. […] Cross-sectional fluorescence intensity analysis was used to quantify the intensity of signal at a cross section of the cell. Average signal at the membrane and in the cytoplasm were calculated and change in signal intensity was assessed between time zero and time final. […] Additionally, the control condition of CCG-50014 was subject to the same analyses as the lead compound.
Twenty four (24) hours prior to plating, assay plates were coated with 30 μl poly-D-lysine per well. Human Embryonic Kidney 293T cells (HEK293T) were plated in to 96 well tissue culture treated glass bottom view plates (Perkin Elmer, Part No. 6005430) at a density of 25K cells per well. 24 hours post seeding, cells were transfected with hGαo in pCDNA 3.1(+), pAcGFPRGS17 FL, pAcGFP RGS17ΔN, empty pAcGFP, hGαo+pAcGFPRGS17 FL, hGαo+pAcGFP RGS17ΔN, or hGαo+empty pAcGFP vector using Lipofectamine 2000 (Life Technologies) as the transfection reagent and according to manufacture protocols. 24 hours post transfection, cell media was removed and replaced with […] serum free, phenol red free DMEM (Life Technologies, Ref No. 31053-028). Cells were then imaged using a Zeiss LSM510 confocal microscope (University of Iowa Central Microscopy Core). Images were analyzed using NIH Image J software and Graphpad Prism 6.
Compounds at 2× final desired concentrations were diluted in serum free, phenol red free DMEM.

[4] = malachite green, n=3, read-out: IC50 for inhibition of RGS17 GAP activity

Row | SMILES | inhibition of the interaction of RGS17 with Gαo [1] | inhibition at 100 µM [1] [%] | IC50 [2, 4] [µM] | delocalization / cellular activity ([3]; 10 μM compound) | time to full delocalization of GFP-RGS17 from the membrane ([3]; 10 μM compound) [min] | delocalization of RGS17ΔN from the membrane ([3]; 100 μM compound) | time to full delocalization of GFP-RGS17 from the membrane ([3]; 100 μM compound) [min] | inhibition at 100 µM ([1]; 100 μM compound, from dose-response experiments) [%] | IC50 [2] [µM]
1 | C[n+]1cc2c3c(ccc2c2ccc4cc5c(cc4c21)OCO5)OCO3 [UI-5] | dose dependent manner | > 25 | 12 | had cellular activity | 30 | delocalization occurs | 5 | – | –
2 | CC(C)=CCC[C@]1(C)C=Cc2c(O)c3c(c(CC=C(C)C)c2O1)O[C@]12C(=C[C@@H]4C[C@H]1C(C)(C)O[C@@]2(C/C=C(/C)C(=O)O)C4=O)C3=O [UI-1907] | dose dependent manner | > 25 | – | – | – | not | – | – | –
3 | O=c1c(-c2cc(O)c(O)c(O)c2)coc2cc(O)c(O)c(O)c12 [UI-1956, 5,6,7-trihydroxy-3-(3,4,5-trihydroxyphenyl)-4H-chromen-4-one] | dose dependent manner | – | 35 | had cellular activity | 30 | delocalization occurs | 20 | > 25 | –
4 | CC1=C(O)C(=O)C=C2C1=CC=C1[C@@]2(C)CC[C@@]2(C)[C@@H]3C[C@](C)(C(=O)O)CC[C@]3(C)CC[C@]12C [UI-1590] | dose dependent manner | > 25 | 6.36 | had cellular activity | 20 | delocalization occurs | 5 | – | 6

Source: patent US20160264616A1, “THERAPEUTIC COMPOUNDS AND METHODS” (priority 2015, published 2016)
